Laboratory results as given in ChEMBL document CHEMBL5303711, “ECBD screening data for assay EOS300108” (2023).
Where a name gives a salt, the structure may show the parent alone. Active and inactive are the calls of the source. No rule for the calls is given here.

Assay: Cytotoxicity activity against human HepG2 cells assessed by CellTiter-Glo luminescent cell viability assay.
Type: toxicity, cell-based
Design: assay stage confirmatory assay, source tissue liver
Details: HepG2 cells, read-out: IC50 relative

Structure (SMILES)	CC50
Cc1cc(C#N)cc(C)c1Oc1nc(Nc2ccc(C#N)cc2)nc(N)c1Br [ETRAVIRINE]	50 µM (inactive)
CC(C)(C)c1cc(C=C(C#N)C#N)cc(C(C)(C)C)c1O [TYRPHOSTIN A9]	0.8 µM (active)
Cc1ccc(NC(=O)c2ccc(CN3CC[C@H](N(C)C)C3)c(C(F)(F)F)c2)cc1Nc1nccc(-c2cncnc2)n1 [BAFETINIB]	0.9 µM (active)
CCC(C)C1OC2(CCC1C)CC1CC(C/C=C(/C)C(OC3CC(OC)C(OC4CC(OC)C(O)C(C)O4)C(C)O3)C(C)/C=C\C=C3\COC4C(O)C(C)=CC(C(=O)O1)C34O)O2 (stereo not drawn)	11.1 µM (active)
Cc1cccc(C(=O)N[C@@H]2CN(Cc3ccccc3)C[C@H]2CN(C)C)c1	10 µM (active)
CCC(=O)Nc1cccc(Oc2nc(Nc3ccc(N4CCN(C)CC4)cc3OC)ncc2Cl)c1	2.8 µM (active)
CCOc1ccccc1CN1CCN(Cc2ccc(C)cc2)CC1CCO (stereo not drawn)	12.9 µM (inactive)
O=C(Cc1cnn(-c2ccccc2)c1)N1CCN(S(=O)(=O)c2ccc3c(c2)OCCCO3)CC1	8.6 µM (active)
COc1cc([C@@H]2c3cc4c(cc3[C@@H](O[C@@H]3O[C@@H]5CO[C@@H](c6cccs6)O[C@H]5[C@H](O)[C@H]3O)[C@H]3COC(=O)[C@H]23)OCO4)cc(OC)c1O [TENIPOSIDE]	6.5 µM (active)
COc1cc(-c2ccccc2)sc1C(=O)NC1CC1	13.4 µM (active)
Cc1nnsc1C(=O)Nc1ccc(-n2nc(C(F)(F)F)cc2C(F)(F)F)cc1	9.9 µM (active)
Cc1ccc(NC(=O)c2nc(S(C)(=O)=O)ncc2Br)cc1	2.7 µM (active)
COc1ccc(OC)c(C(O)CN2CCN(c3cccc(C)c3C)CC2)c1 (stereo not drawn)	9.9 µM (active)
O=c1cc(N2CCOCC2)oc2c(-c3cccc4c3sc3ccccc34)cccc12	7.1 µM (active)
COc1cc(OC)cc(C(=O)NCc2nc3ncc(Br)cc3[nH]2)c1	3.7 µM (active)
Cc1ccc(-c2nc(C#N)c(S(=O)(=O)N(C)CCO)o2)cc1	7.3 µM (active)
CCc1ccc(NC(=O)Nc2ccc3c(c2)N(S(=O)(=O)CC)CC3)cc1	2.4 µM (active)
O=c1oc(-c2ccccc2)cc(Cl)c1Cl	5.5 µM (active)
Cc1cccc(OC[C@@H](O)CN2CCC(C(=O)N3CCc4ccccc43)CC2)c1	11.3 µM (active)
CCn1c(=O)c(C(=O)Nc2cccc(OC)c2)c(O)c2ccccc21	2.4 µM (inactive)
COc1ccc(C)cc1CN(C)C(=O)CCN1C(=O)COc2ccccc21	5.1 µM (inactive)
COCCOc1ccc2c(c1)ncn2-c1ccc2cccc(N3CCC(N)CC3)c2n1	8.2 µM (active)

Structure (SMILES)	CC50
C[C@H]1COC2=C1C(=O)C(=O)c1c2ccc2c1CCCC2(C)C [CRYPTOTANSHINONE]	3.1 µM (active)
COc1cccc(C(=O)Nc2ncc(Cc3cccc(C(F)(F)F)c3)s2)c1	8 µM (active)
Cc1cc(C(=O)Nc2ccc(Cl)cc2F)nc2ccnn12	2.4 µM (inactive)
COCC1CCN(Cc2ccc(C(C)C)cc(O)c2=O)CC1	11.8 µM (active)
CN1CCN(Cc2ccc(Nc3ncc(Cl)c(Nc4ccccc4S(=O)(=O)N(C)C)n3)cc2)CC1 [DUBERMATINIB]	11.2 µM (active)
C=CC(=O)Nc1cccc(Oc2nc(Nc3ccc(N4CCN(C)CC4)cc3OC)ncc2Cl)c1	2.2 µM (active)
CC1CC[C@@]2(NC1)O[C@H]1C[C@H]3[C@@H]4CC=C5CC(O)CCC5(C)C4CCC3(C)[C@H]1[C@@H]2C (stereo partly drawn)	25.1 µM (inactive)
N#C/C(=C(/N)Sc1ccc(N)cc1)c1ccccc1C(F)(F)F	8.6 µM (active)
Cc1cc(C)n(-c2ccc(C(=O)Nc3ncccc3O)cc2)n1	8.8 µM (active)
Cc1cc(C)c(C(N)=O)c(SCC(=O)N(CCC#N)c2ccc3c(c2)OCCO3)n1	4.3 µM (active)
N#Cc1c(C2CCNCC2)cc(-c2c(O)cccc2OCC2CC2)nc1N	5.6 µM (active)
COc1ccc(OC[C@@H](O)CN(C)Cc2ccc(C)o2)c(C(C)(C)C)c1	21.3 µM (inactive)
COc1ccc(S(=O)(=O)N2CCN(C(=O)c3ccc(-c4ccc(C(C)=O)cc4)o3)CC2)cc1OC	8.5 µM (active)
CCNC(=O)c1noc(-c2cc(C(C)C)c(O)cc2O)c1-c1ccc(CN2CCOCC2)cc1 [LUMINESPIB]	< 0.1 µM (active)
C[C@]12CC/C(=N\OCCN)C[C@@H]1C(=O)C[C@@H]1[C@@H]2CC[C@]2(C)C(=O)CC[C@@H]12	10.5 µM (active)
COc1cc(-c2noc(-c3ccc4c(c3)OCO4)n2)cc(OC)c1OC	0.1 µM (active)
CCN(CC)C(=O)CN1CCN(S(=O)(=O)c2ccc3c(c2)CCC3)CC1	50 µM (inactive)
CCCS(=O)(=O)Nc1ccc(Nc2nc(C)cc(N(CC)CC)n2)cc1	6.4 µM (active)
Cc1csc(-c2nnc(Nc3ccc(Oc4ncccc4-c4ccnc(N)n4)cc3)c3ccccc23)c1 [AMG-900]	25.4 µM (inactive)
COc1ccc(CN2CCN(c3ncnc4sccc34)CC2)cc1OC	1.4 µM (active)
c1ccc([C@H](CC2CCC2)NC2CCC3(CC2)OCCO3)cc1	4 µM (active)
NC1(Cc2ccc(Cl)cc2)CCN(c2ncnc3[nH]ccc23)CC1	6.7 µM (active)

Structure (SMILES)	CC50
CCC(C)NC(=O)N1CC(Oc2ccc(-c3noc(C4CC4)n3)cc2)C1 (stereo not drawn)	3.5 µM (active)
Cc1cccc(N2CCN(CC(=O)c3c(N)n(CC(C)C)c(=O)n(C)c3=O)CC2)c1C	10.7 µM (active)
O=c1cc(-c2ccc(O)c(O)c2)oc2cc(O[C@@H]3O[C@H](CO)[C@@H](O)[C@H](O)[C@H]3O)cc(O)c12 [GALUTEOLIN]	5.7 µM (inactive)
Cc1cc(Nc2ncc(Cl)c(Nc3ccccc3S(=O)(=O)C(C)C)n2)c(OC(C)C)cc1C1CCNCC1 [CERITINIB]	0.7 µM (active)
CC(=O)NC(c1ccccc1)c1cc(Cl)c2cccnc2c1O (stereo not drawn)	1.4 µM (active)
COc1cccc(Nc2nc(N3CCN(C)CC3)nc3c2cnn3C)c1	14 µM (inactive)
CC(C)NC(=O)N1CC(Oc2ccc(-c3noc(C4CCOCC4)n3)cc2)C1	4.1 µM (active)
CCOCc1ccc(O)c2ncccc12	5.6 µM (active)
COc1ccccc1C(=O)Nc1nc2ccccc2[nH]1	2.8 µM (active)
CC(C)(C)c1n[nH]c2c(-c3nc4ccccc4s3)c(N)nn2c1=O	35.4 µM (inactive)
Oc1ccc(CN2CCc3ccccc3C2)cc1	3.4 µM (active)
Cc1cccnc1C(NC(=O)CCOc1ccccc1)C1CC1 (stereo not drawn)	36.5 µM (inactive)
OC(CN1CCC(Cc2ccc(F)cc2)CC1)c1ccc(Cl)cc1 (stereo not drawn) [ELIPRODIL]	50 µM (inactive)
CC(C)(C)Cc1cc(NC(=O)[C@@H]2CCCN2C(=O)c2ccc3c(c2)OCO3)[nH]n1	0.8 µM (active)
COc1ccccc1OCCNc1ncnc2cc(F)ccc12	1.5 µM (active)
CCCOc1ccc(NC(=O)N2CCN(c3ccncc3)CC2)cc1Cl	7.4 µM (active)
CC(C)(C)NC(=O)NC(=O)CNc1ccccc1C(=O)Nc1ccc(F)cc1	50 µM (inactive)
CCN1CCN(Cc2cc(=O)oc3cc(-c4ccccc4)c(O)cc23)CC1	3.8 µM (active)
Fc1ccc2[nH]c(CCNc3ncc(Cl)cn3)nc2c1	6.7 µM (active)
CN(c1ccc(-c2csc(NC(=O)CCc3ccco3)n2)cc1)S(C)(=O)=O	6 µM (active)
C[C@]1(c2cccc(C#N)c2)NC(=O)N(Cc2noc(-c3ccsc3)n2)C1=O	12.5 µM (inactive)
CCc1ccc(-c2cc3c(=O)n(CC(=O)NCCCN4CCCC4)nc(C)n3n2)cc1	11.4 µM (active)

Structure (SMILES)	CC50
COc1cc(OC)cc(-c2nnc(Nc3nc4c(F)cccc4s3)o2)c1	27.8 µM (inactive)
CCn1c(-c2nonc2N)nc2cnc(Oc3cccc(NC(=O)c4ccc(OCCN5CCOCC5)cc4)c3)cc21 [GSK-269962A]	3 µM (active)
CC(C)(C)n1c(NC(=O)c2ccncc2)nc2ccccc21	15.2 µM (active)
CC(C)c1nn(-c2ccccc2)cc1CNCC(C)(C)N1CCN(C)CC1	4.9 µM (active)
NCC(=O)Nc1ccc(-n2nc(C(F)(F)F)cc2-c2ccc3c(ccc4ccccc43)c2)cc1 [AR-12]	50 µM (inactive)
CCc1oc2ccccc2c1CN(C)C(=O)C1(C)CCN(C)CC1	12 µM (active)
Cn1c(=O)n(-c2ccc(C(C)(C)C#N)cc2)c2c3cc(-c4cnc5ccccc5c4)ccc3ncc21 [DACTOLISIB TOSYLATE]	0.1 µM (active)
c1ccc(CCCN2CCN(CCOC(c3ccccc3)c3ccccc3)CC2)cc1	9.1 µM (active)
CCCN1CCN(CCCNC(=O)C2CCN(c3nc(-c4ccc(OC)cc4)no3)CC2)CC1	13 µM (active)
Nc1ncccc1-c1nc2ccc(-c3ccccc3)nc2n1-c1ccc(C2(N)CCC2)cc1 [MIRANSERTIB]	4.2 µM (active)
COCCCN(C(=O)CCl)c1nc(-c2ccc(OC)cc2)cs1	1.5 µM (active)
O=C(Nc1ccc([N+](=O)[O-])cc1Cl)c1cc(Cl)ccc1O [NICLOSAMIDE]	0.7 µM (active)
O=C(CCn1sc2ccccc2c1=O)NCCc1c[nH]c2ccccc12	5 µM (active)
CCOc1cc(C(C)(C)C)ccc1C1=N[C@@](C)(c2ccc(Cl)cc2)[C@@](C)(c2ccc(Cl)cc2)N1C(=O)N1CCN(CCCS(C)(=O)=O)CC1 [RO-5045337]	6.3 µM (active)
Cc1c(C(=O)Nc2cccc(C(F)(F)F)c2)cc(-c2ccccc2)n1CCCN1CCOCC1	13.9 µM (inactive)
O=C(NC[C@H](O)CO)c1ccncc1Nc1ccc(I)cc1F [PIMASERTIB]	< 0.1 µM (active)
CN(C)CCOc1ccc2ccccc2c1Br	12 µM (active)
COc1cc(C[C@H]2C(=O)OC[C@@H]2Cc2ccc(OC)c(OC)c2)ccc1O [ARCTIGENIN]	2.6 µM (active)
CCCCNc1ncc2c(-c3ccc(CN4CCN(C)CC4)cc3)cn([C@H]3CC[C@H](O)CC3)c2n1	1.3 µM (active)
CCCc1cc(C)[nH]c(=O)c1CNC(=O)c1cc(-c2ccc(N3CCN(C)CC3)nc2)nc2c1cnn2C(C)C	7.5 µM (active)
CN(c1ccccc1)S(=O)(=O)c1ccc(C(=O)N2CCN(CCOc3ccccc3)CC2)cc1	9.1 µM (active)
O=C1CN2C(=C1c1nc3ccccc3s1)NC(=O)c1sccc12	3.7 µM (active)
